Earlier results, collected in patent US20110160463A1, “PROCESS FOR MAKING SUBSTITUTED 2-AMINO-THIAZOLONES” (Amgen Inc., priority 2008, published 2011).

Key:
11βHSD1 [1] = target: T1, 11βHSD1 (Homo sapiens, UniProt P28845); conditions: healthy human volunteers
T1 construct: Hepatic insulin sensitivity was improved in healthy human volunteers; host or cells: endogenous enzyme in human volunteers (liver)
T1 sequence (P28845 whole entry): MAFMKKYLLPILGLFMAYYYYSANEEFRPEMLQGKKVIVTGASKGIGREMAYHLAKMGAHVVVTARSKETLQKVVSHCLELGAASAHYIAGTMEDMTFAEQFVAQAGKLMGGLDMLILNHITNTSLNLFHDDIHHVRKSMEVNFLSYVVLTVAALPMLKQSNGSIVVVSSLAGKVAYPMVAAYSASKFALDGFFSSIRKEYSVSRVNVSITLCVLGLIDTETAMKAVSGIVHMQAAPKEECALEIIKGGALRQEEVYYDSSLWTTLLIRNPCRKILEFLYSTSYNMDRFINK

11βHSD1 [2] = target: T2, 11βHSD1 (Homo sapiens, UniProt P28845); conditions: ingestion, normal subjects
T2 construct: reduce the intraocular pressure by 20% in normal subjects; host or cells: endogenous enzyme in living subjects (eye)
T2 sequence (P28845 whole entry): as above

- hepatic insulin sensitivity (11βHSD1 [1]): improved
- reduction of the intraocular pressure (11βHSD1 [2]): 20%
Compound: CC1(C)[C@@H](OC(=O)CCC(=O)O)CC[C@]2(C)[C@H]3C(=O)C=C4[C@@H]5C[C@@](C)(C(=O)O)CC[C@]5(C)CC[C@@]4(C)[C@]3(C)CC[C@@H]12 [carbenoxolone]
- negative effect (of glucocorticoids) on bone nodule formation (bone nodule formation): blocked
